Data published in PubChem BioAssay AID1919010 (Molecular Pharmacology Branch, DTP, NCI, 2023).
“And” between values parts separate entries of the source, which are not always exact repeats. Equal entries are not always repeated.

Test system: Hs578T complex spheroid growth, percent test/control
Test: Anticancer human tumor Hs578T cell line growth inhibition [AhR];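 further: luminescent viability signal as a proxy for spheroid growth; spheroids exposed to agents for one week after three days of growth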
Conditions: for viability, T/C: stronger effect = lower value
Outline: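 Agents were dosed in half-log steps down from roughly clinical Cmax, or from 10 microM where Cmax was unknown, alone and with AhR antagonists. Read-out: percent test/control growth of tumor spheroids containing HUVEC and MSC stromal cells.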

[1] = curve of first compound, second compound 0.1 µM
[2] = curve of first compound, second compound 0.316 µM
[3] = curve of first compound, second compound 1 µM
[4] = curve of first compound, second compound 3.16 µM
[5] = curve of first compound, second compound 10 µM
[6] = second compound 0.1 µM, first compound 0.0316 µM
[7] = second compound 0.1 µM, first compound 0.1 µM
[8] = second compound 0.1 µM, first compound 0.316 µM
[9] = second compound 0.1 µM, first compound 1 µM
[10] = second compound 0.1 µM, first compound 3.16 µM
[11] = second compound 0.1 µM, first compound 10 µM
[12] = second compound 0.316 µM, first compound 0.0316 µM
[13] = second compound 0.316 µM, first compound 0.1 µM
[14] = second compound 0.316 µM, first compound 0.316 µM
[15] = second compound 0.316 µM, first compound 1 µM
[16] = second compound 0.316 µM, first compound 3.16 µM
[17] = second compound 0.316 µM, first compound 10 µM
[18] = second compound 1 µM, first compound 0.0316 µM
[19] = second compound 1 µM, first compound 0.1 µM
[20] = second compound 1 µM, first compound 0.316 µM
[21] = second compound 1 µM, first compound 1 µM
[22] = second compound 1 µM, first compound 3.16 µM
[23] = second compound 1 µM, first compound 10 µM
[24] = second compound 3.16 µM, first compound 0.0316 µM
[25] = second compound 3.16 µM, first compound 0.1 µM
[26] = second compound 3.16 µM, first compound 0.316 µM
[27] = second compound 3.16 µM, first compound 1 µM
[28] = second compound 3.16 µM, first compound 3.16 µM
[29] = second compound 3.16 µM, first compound 10 µM
[30] = second compound 10 µM, first compound 0.0316 µM
[31] = second compound 10 µM, first compound 0.1 µM
[32] = second compound 10 µM, first compound 0.316 µM
[33] = second compound 10 µM, first compound 1 µM
[34] = second compound 10 µM, first compound 3.16 µM
[35] = second compound 10 µM, first compound 10 µM

Structure (SMILES) | IC50 [1] [µM] | IC50 [2] [µM] | IC50 [3] [µM] | IC50 [4] [µM] | IC50 [5] [µM] | viability, T/C [6] [%] | viability, T/C [7] [%] | viability, T/C [8] [%] | viability, T/C [9] [%] | viability, T/C [10] [%] | viability, T/C [11] [%] | viability, T/C [12] [%] | viability, T/C [13] [%] | viability, T/C [14] [%] | viability, T/C [15] [%] | viability, T/C [16] [%] | viability, T/C [17] [%] | viability, T/C [18] [%] | viability, T/C [19] [%] | viability, T/C [20] [%] | further results
O=C(C=Cn1cnc(-c2cc(C(F)(F)F)cc(C(F)(F)F)c2)n1)NNc1cnccn1 | – | – | – | – | – | – | – | – | – | – | – | – | – | – | – | – | – | – | – | – | viability, T/C (compound 0.00949 µM): 91.2% and 92.5% and 96.9%; viability, T/C (compound 0.03 µM): 95.9% and 92.7% and 88.6%; viability, T/C (compound 0.0949 µM): 90.4% and 70.7% and 77.7%; viability, T/C (compound 0.3 µM): 54.4% and 32.3% and 45.1%; viability, T/C (compound 0.949 µM): 18.8% and 10% and 17.4%; viability, T/C (compound 3 µM): 15.7% and 10.8% and 15.9%; IC50 (curve of compound): 0.346 µM and 0.176 µM and 0.244 µM
CC1COCCN1c1cc(C2(S(C)(=N)=O)CC2)nc(-c2ccnc3[nH]ccc23)n1 (configuration not stated) + Cc1ccccc1N=Nc1ccc(NC(=O)c2ccnn2C)c(C)c1 | 9.25 | > 10 | 9.24 | > 10 | > 10 | 110 | 102 | 102 | 96.6 | 77.9 | 47.9 | 101 | 101 | 100 | 93.4 | 76.9 | 52.4 | 94.6 | 102 | 99.5 | viability, T/C [21]: 86.3%; viability, T/C [22]: 73.7%; viability, T/C [23]: 48.1%; viability, T/C [24]: 85.4%; viability, T/C [25]: 93.3%; viability, T/C [26]: 89.7%; viability, T/C [27]: 84.4%; viability, T/C [28]: 69.2%; viability, T/C [29]: 51.4%; viability, T/C [30]: 62.9%; viability, T/C [31]: 62%; viability, T/C [32]: 76.1%; viability, T/C [33]: 68.5%; viability, T/C [34]: 61.6%; viability, T/C [35]: 47.7%
COc1ccc([C@@H](O)c2cc(-c3ncnc4cc(N5CCOCC5)ccc34)c(F)cc2Cl)nn1 + Cc1ccccc1N=Nc1ccc(NC(=O)c2ccnn2C)c(C)c1 | 3.4 | 4.79 | 3.33 | 2.87 | 3.08 | 106 | 112 | 92.8 | 82.6 | 49.5 | 32.2 | 116 | 108 | 99.4 | 89.8 | 58.4 | 31.8 | 107 | 106 | 100 | viability, T/C [21]: 80.3%; viability, T/C [22]: 50.8%; viability, T/C [23]: 34.5%; viability, T/C [24]: 98.7%; viability, T/C [25]: 93.2%; viability, T/C [26]: 86.9%; viability, T/C [27]: 77.8%; viability, T/C [28]: 46.1%; viability, T/C [29]: 30.5%; viability, T/C [30]: 74.3%; viability, T/C [31]: 68.2%; viability, T/C [32]: 73.9%; viability, T/C [33]: 63.1%; viability, T/C [34]: 50.1%; viability, T/C [35]: 32.9%
